Reference: article PMC9376891 (Nature Communications, 2022)

Target: Rae1_31-368-Nup98_157-213 heterodimer (Rae1-Nup98 complex) (Homo sapiens, UniProt P52948+P78406)
Assay: biochemical
Type: binding

Sequence of Rae1_31-368-Nup98_157-213 heterodimer (Rae1-Nup98 complex) (P78406 31-368 limits assumed): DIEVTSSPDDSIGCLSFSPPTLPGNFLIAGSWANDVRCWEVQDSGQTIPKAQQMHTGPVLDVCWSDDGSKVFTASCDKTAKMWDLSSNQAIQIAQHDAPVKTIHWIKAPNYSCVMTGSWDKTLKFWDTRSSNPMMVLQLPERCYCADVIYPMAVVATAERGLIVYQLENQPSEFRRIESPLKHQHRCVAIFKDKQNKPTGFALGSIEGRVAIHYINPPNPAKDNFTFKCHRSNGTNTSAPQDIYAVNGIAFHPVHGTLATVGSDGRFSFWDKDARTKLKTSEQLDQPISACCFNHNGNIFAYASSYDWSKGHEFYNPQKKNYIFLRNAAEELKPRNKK
Sequence of Rae1_31-368-Nup98_157-213 heterodimer (Rae1-Nup98 complex) (P52948 157-213 partner limits assumed): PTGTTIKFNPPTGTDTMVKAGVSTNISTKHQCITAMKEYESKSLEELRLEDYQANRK

**Q.** Which Kd does the source give for CC[C@H](C)[C@H](NC(=O)[C@H](CCC(=O)O)NC(=O)[C@H](CCSC)NC(=O)[C@@H]1CCCN1C(=O)[C@H](CCC(N)=O)NC(=O)[C@H](CCC(=O)O)NC(=O)[C@H](CCC(=O)O)NC(=O)[C@H](CC(=O)O)NC(=O)[C@H](CC(C)C)NC(=O)[C@H](CCC(N)=O)NC(=O)[C@H](CO)NC(=O)[C@@H](N)Cc1ccc(O)cc1)C(=O)N[C@@H](CC(=O)O)C(=O)N[C@@H](Cc1ccc(O)cc1)C(=O)N1CCC[C@H]1C(=O)O [SARS-CoV-2 ORF6 C3 + YP] here?
**A.** 200 nM
